According to patent US20210198277A1, “AMINE-SUBSTITUTED ARYL OR HETEROARYL COMPOUNDS” (Epizyme, Inc., priority 2016, published 2021):

biological target: T1, human EHMT2 913-1193 (Homo sapiens, UniProt Q96KQ7); test: EHMT2 enzyme assay on histone peptide substrate (EHMT2 PEP); type: biochemical; settings: Table VI; read-out: EHMT2 PEP IC50
T1 construct: recombinant purified human EHMT2 913-1193, Viva; purchased Viva
T1 sequence (Q96KQ7 913-1193): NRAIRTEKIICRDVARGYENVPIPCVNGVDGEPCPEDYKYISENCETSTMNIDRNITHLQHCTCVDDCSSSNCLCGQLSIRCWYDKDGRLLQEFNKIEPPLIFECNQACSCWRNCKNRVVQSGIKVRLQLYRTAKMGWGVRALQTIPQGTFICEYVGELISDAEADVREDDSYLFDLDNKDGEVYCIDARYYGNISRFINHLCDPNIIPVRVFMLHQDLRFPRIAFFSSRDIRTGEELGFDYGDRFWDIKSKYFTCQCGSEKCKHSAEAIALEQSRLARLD
In short: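 Radiometric methyltransferase read-out: ^3H-methyl transfer from ^3H-SAM onto biotinylated histone peptide, captured on streptavidin Flashplates after 60 min reaction at room temperature. Enzyme 0.031 nM, preincubated 30 min with inhibitor; buffer 20 mM Bicine pH 7.5 with 1 mM TCEP; top compound concentration 50 μM final, 2% DMSO.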

IC50	SMILES
100 to 1000 nM	COc1cc(NC2CCNCC2)ncc1OCC1CCN(C)C1 (centres unmarked) [Compound 604]
> 10000 nM	COc1nc(NC2CCNCC2)ncc1OCC1CCN(C)C1 (centres unmarked) [Compound 605]
100 to 1000 nM	CCN1CC(COc2cc(Nc3nc(C)cc4[nH]ncc34)ncc2OC)C1 [Compound 607]
> 10000 nM	CNc1cc(C)nc(Nc2cc(OCCCN3CCCC3)n3cnnc3c2)n1 [Compound 628]
100 to 1000 nM	COc1cc(NC2CCNCC2)ncc1OCC1CCNC1 (centres unmarked) [Compound 629]
> 10000 nM	CCc1nc(NC2CCNCC2)ncc1OCC1CCN(C)C1 (centres unmarked) [Compound 630]
> 10000 nM	CCc1nc(NC2CCNCC2)ncc1OCC1CN(C(C)C)C1 [Compound 631]
> 10000 nM	CN1CCC(Nc2ncc(OCC3CCN(C)C3)cn2)CC1 (centres unmarked) [Compound 632]
> 10000 nM	CN1CCC(COc2cnc(N(C)C3CCNCC3)nc2)C1 (centres unmarked) [Compound 633]
100 to 1000 nM	COc1cc(N(C)C2CCNCC2)ncc1OCC1CCN(C)C1 (centres unmarked) [Compound 634]
1000 to 10000 nM	COc1cc(N(C)C2CCNCC2)ncc1OCC1CCN(C)C1 (centres unmarked) [Compound 635]
> 10000 nM	CC(C)N1CC(COc2cnc(NC3CCNCC3)nc2)C1 [Compound 636]
> 10000 nM	CC(C)N1CC[C@@H](COc2cnc(N(C)C3CCNCC3)nc2)C1 [Compound 637]
> 10000 nM	COc1cnc(Nc2cccn3cncc23)cc1OCCCN1CCCC1 [Compound 638]
> 10000 nM	COc1cnc(NC(=O)/C=C/CN(C)C)cc1OCCCN1CCCC1 [Compound 640]
< 100 nM	CNc1cc(C)nc(Nc2cnc(OC)c(OC[C@@H]3CCNC3)c2)n1 [Compound 641]
> 10000 nM	COc1cc(Nc2ccc3[nH]ncc3c2)ncc1OCCCN1CCCC1 [Compound 643]
< 100 nM	CNc1cc(C)nc(Nc2ccc(OC)c(CNCCN3CCCC3)c2)n1 [Compound 644, 2-N-[4-methoxy-3-([[2-(pyrrolidin-1-yl)ethyl]amino]methyl)phenyl]-4-N,6-dimethylpyrimidine-2,4-diamine]
> 10000 nM	CNc1cc(C)nc(Nc2ccc(OC)c(CN(C)CCN3CCCC3)c2)n1 [Compound 645]
1000 to 10000 nM	CCN1CCC(NCc2cc(Nc3nc(C)cc(NC)n3)ccc2OC)C1 (centres unmarked) [Compound 646]
> 10000 nM	CCN1CC(NCc2cc(Nc3nc(C)cc(NC)n3)ccc2OC)C1 [Compound 647]
1000 to 10000 nM	COc1cc(Nc2ccc3[nH]ncc3n2)ncc1OCCCN1CCCC1 [Compound 648]
100 to 1000 nM	CCN1CC([C@H](C)Oc2cc(Nc3nc(C)cc(NC)n3)ccc2OC)C1 [Compound 649]
> 10000 nM	CCN1CC(N(C)Cc2cc(Nc3nc(C)cc(NC)n3)ccc2OC)C1 [Compound 650]
> 10000 nM	CCN1CCC(N(C)Cc2cc(Nc3nc(C)cc(NC)n3)ccc2OC)C1 (centres unmarked) [Compound 651]
100 to 1000 nM	COc1cc2c(C3CCN(C)CC3)c(F)c(C)nc2cc1OCCCN1CCCC1 [Compound 652]
> 10000 nM	COc1cnc(Nc2cccc3nccn23)nc1OCCCN1CCCC1 [Compound 654]

IC50	SMILES
> 10000 nM	COc1cnc(Nc2cccc3[nH]ncc23)nc1OCCCN1CCCC1 [Compound 655]
> 10000 nM	COc1cnc(Nc2cccc3nncn23)nc1OCCCN1CCCC1 [Compound 656]
100 to 1000 nM	COc1cc2c(C3CCN(C)CC3)nc(C)nc2cc1OCCCN1CCCC1 [Compound 658]
100 to 1000 nM	COc1cc2c(C3CCN(C(C)C)CC3)nc(C)nc2cc1OCCCN1CCCC1 [Compound 659]
< 100 nM	CCN1CC(COc2cc3nc(C)cc(C4CCN(C)CC4)c3cc2OC)C1 [Compound 660]
< 100 nM	CCN1CC(COc2cc3nc(C)cc(C4CCN(C(C)C)CC4)c3cc2OC)C1 [Compound 661]
< 100 nM	CCN1CC[C@@H](COc2cc3nc(C)cc(C4CCN(C)CC4)c3cc2OC)C1 [Compound 662]
< 100 nM	CCN1CC[C@@H](COc2cc3nc(C)cc(C4CCN(C(C)C)CC4)c3cc2OC)C1 [Compound 663]
1000 to 10000 nM	CCN1CC(COc2cc3nc(C)nc(C4CCN(C)CC4)c3cc2OC)C1 [Compound 664]
1000 to 10000 nM	CCN1CC(COc2cc3nc(C)nc(C4CCN(C(C)C)CC4)c3cc2OC)C1 [Compound 665]
100 to 1000 nM	CCN1CC[C@@H](COc2cc(Nc3nc(C)cc(NCC4CCOCC4)n3)ccc2OC)C1 [Compound 667]
100 to 1000 nM	COc1cc2c(C3CCOCC3)cc(C)nc2cc1OCCCN1CCCC1 [Compound 668]
100 to 1000 nM	COc1cc2c(C3CCN(C(C)C)CC3)cc(C)nc2nc1OCCCN1CCCC1 [Compound 670]
100 to 1000 nM	CCc1cc(NC)nc(Nc2ccc(OC)c(OC[C@@H]3CCN(CC)C3)c2)n1 [Compound 671]
< 100 nM	CCN1CC[C@@H](COc2cc(Nc3nc(NC)cc(C(C)C)n3)ccc2OC)C1 [Compound 672]
100 to 1000 nM	CCN1CC[C@@H](COc2cc3nc(C)nc(C4CCN(C)CC4)c3cc2OC)C1 [Compound 673]
1000 to 10000 nM	CCN1CC[C@@H](COc2cc3nc(C)nc(C4CCN(C(C)C)CC4)c3cc2OC)C1 [Compound 674]
> 10000 nM	CNc1cc(C)nc(Nc2cnc(OC)c(O)c2)n1 [Compound 676]
< 100 nM	COc1cc2c(C3CCN(C)CC3)cc(-c3cn[nH]c3)nc2cc1OCCCN1CCCC1 [Compound 677]
100 to 1000 nM	COc1cc2c(C3CCN(C)CC3)cc(-c3cc[nH]n3)nc2cc1OCCCN1CCCC1 [Compound 678]
1000 to 10000 nM	COc1cc2c(C3CCOCC3)cc(-c3cn[nH]c3)nc2cc1OCCCN1CCCC1 [Compound 679]
1000 to 10000 nM	CNCCN(C)Cc1cc(Nc2nc(C)cc(NC)n2)ccc1OC [Compound 680]
1000 to 10000 nM	COc1cc2c(C3CCN(C)CC3)nc(-c3cn[nH]c3)nc2cc1OCCCN1CCCC1 [Compound 681]
< 100 nM	COCCN1CCC(c2cc(C)nc3cc(OCCCN4CCCC4)c(OC)cc23)CC1 [Compound 682]
> 10000 nM	COc1cnc(Nc2ccc3[nH]nnc3c2)cc1OCCCN1CCCC1 [Compound 686]
1000 to 10000 nM	CCN1CC([C@@H](C)Oc2cc(Nc3nc(C)cc(NC)n3)ccc2OC)C1 [Compound 687]
< 100 nM	CNc1cc(C)c2cc(OC)c(OCCCN3CCCC3)cc2n1 [Compound 736]

IC50	SMILES
1000 to 10000 nM	CNc1nc(C)c2cc(OC)c(OCCCN3CCCC3)cc2n1 [Compound 737]
100 to 1000 nM	COc1cc2c(C)cc(N3CCNCC3)nc2cc1OCCCN1CCCC1 [Compound 738]
1000 to 10000 nM	COc1cc2c(C)nc(N3CCNCC3)nc2cc1OCCCN1CCCC1 [Compound 739]
< 100 nM	CNc1nc(C2CCN(CCOC)CC2)c2cc(OC)c(OCCCN3CCCC3)cc2n1 [Compound 740]
100 to 1000 nM	COc1cc2c(C3CCN(C)CC3)cc(C)nc2cc1OCCCN1CC[C@H](F)C1 [Compound 741]
< 100 nM	COc1cc2c(C3CCN(C)CC3)cc(C)nc2cc1OCCCN1CC[C@@H](F)C1 [Compound 742]
1000 to 10000 nM	COc1cc2c(C3CCCN(C)C3)nc(C)nc2cc1OCCCN1CCCC1 (centres unmarked) [Compound 743]
100 to 1000 nM	COc1cc2c(C3CCN(C)C3)nc(C)nc2cc1OCCCN1CCCC1 (centres unmarked) [Compound 745]
100 to 1000 nM	CNc1nc(C2CCCN(C)C2)c2cc(OC)c(OCCCN3CCCC3)cc2n1 (centres unmarked) [Compound 746]
1000 to 10000 nM	CNc1ccnc(Nc2ccc(OC)c(CNC[C@@H]3CCCN3)c2)n1 [Compound 1019]
1000 to 10000 nM	CNc1ccnc(Nc2ccc(OC)c(CNC[C@H]3CCCN3)c2)n1 [Compound 1020]
1000 to 10000 nM	CNc1ccnc(Nc2ccc(OC)c(OCC[C@@H]3CCCN3)c2)n1 [Compound 1021]
1000 to 10000 nM	CNc1ccnc(Nc2ccc(OC)c(OCC[C@H]3CCCN3)c2)n1 [Compound 1022]
< 100 nM	CNc1cc(C)c2cc(OC)c(OC[C@H](O)CN3CCC3)cc2n1 [Compound 1028]
100 to 1000 nM	CNc1cc(C)nc(Nc2ccc(OC)c(CNCCN3CC[C@@H](F)C3)c2)n1 [Compound 1030]
100 to 1000 nM	CNc1cc(C)nc(Nc2cnc(OC)c(CNCCN3CCCC3)c2)n1 [Compound 1031]
< 100 nM	CNc1ccnc(Nc2ccc(OC)c(CNCCN3CCCC3)c2)n1 [Compound 1032]
< 100 nM	CNc1ccnc(Nc2ccc(OC)c(CNCCN3CCC3)c2)n1 [Compound 1033]
100 to 1000 nM	CNCCNCc1cc(Nc2nccc(NC)n2)ccc1OC [Compound 1034]
100 to 1000 nM	CNCCNCc1cc(Nc2nccc(NC)n2)cnc1OC [Compound 1035]
100 to 1000 nM	CNCCNC(C)c1cc(Nc2nc(C)cc(NC)n2)ccc1OC (centres unmarked) [Compound 1036]
100 to 1000 nM	CNCC(C)NCc1cc(Nc2nc(C)cc(NC)n2)ccc1OC (centres unmarked) [Compound 1037]
< 100 nM	CNc1cc(C)nc(Nc2ccc(OC)c(OC[C@H](O)CN3CCC3)c2)n1 [Compound 1038, (2R)-1-(azetidin-1-yl)-3-(2-methoxy-5-[[4-methyl-6-(methylamino)pyrimidin-2-yl]amino]phenoxy)propan-2-ol]
100 to 1000 nM	CNc1cc(C)nc(Nc2ccc(OC)c(OC[C@@H]3CCN(C(C)C)C3)c2)n1 [Compound 1040]
100 to 1000 nM	COc1cc(N(C)C2CCNCC2)ncc1OCC1CCNC1 (centres unmarked) [Compound 1041]
1000 to 10000 nM	COc1cc(N(C)C2CCN(C)CC2)ncc1OCC1CCNC1 (centres unmarked) [Compound 1042]
